US20230085307A1, “PYRIDAZINONE COMPOUND AND HERBICIDE” (NISSAN CHEMICAL CORPORATION, priority 2019, published 2023)

How the values were obtained:
rice flat sedge = assay: Test Example 3: herbicidal effect by foliage application, Wagner pot (Table 18, symbol E); assay type: in vivo, rice flat sedge (Cyperus iria); details: for herbicidal effect on rice flat sedge (E): 320 g/ha
Outline: (§1)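 Plants were sown in alluvial soil held under 0.1–0.5 cm standing water and grown 14 days in a greenhouse at 25–30 °C. An emulsifiable formulation, water-diluted to the set dose, was then sprayed onto the foliage, and effects were scored three weeks later using previously defined criteria.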

Chinese sprangletop = assay: Test Example 3: herbicidal effect by foliage application, Wagner pot (Table 18, symbol D); assay type: in vivo, chinese sprangletop (Leptochloa chinensis); details: for herbicidal effect on Chinese sprangletop (D): 320 g/ha
Outline: as §1

barnyard grass [1] = assay: Test Example 3: herbicidal effect by foliage application, Wagner pot (Table 18, symbol H); assay type: in vivo, barnyard grass (Echinochloa crus-galli); details: for herbicidal effect on barnyard grass (H): 320 g/ha
Outline: as §1

oval-leafed pondweed [2] = assay: Test Example 2: herbicidal activity, application during weed generation under submerged conditions (Table 17, symbol C); assay type: in vivo, oval-leafed pondweed (Monochoria vaginalis); details: AAH 320 g/ha; application during weed generation, submerged conditions
Outline: (§2)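 Wagner pot, alluvial soil, 4 cm flood; mixed sowing of all species; greenhouse 25° C.–30° C. Emulsifiable formulation, water-diluted to predetermined dose, applied to paddy water at 1–2 leaf stage. Effect rated at 3 wk using the earlier test's scoring criteria.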

windgrass = assay: Test Example 5: herbicidal effect by foliage application, plastic box (Table 20, symbol L); assay type: in vivo, windgrass (Apera spica-venti); details: evaluated three weeks after application
Outline: (§3)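 Plants were sown into sterilized diluvial soil under about 1.5 cm cover and kept in a greenhouse at 25° C. to 30° C. Fourteen days on, foliage received an even spray of the diluted emulsion. Herbicidal or crop effect was judged three weeks afterwards.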

barnyard grass [3] = assay: Test Example 5: herbicidal effect by foliage application, plastic box (Table 20, symbol H); assay type: in vivo, barnyard grass (Echinochloa crus-galli); details: evaluated three weeks after application
Outline: as §3

oval-leafed pondweed [4] = assay: Test Example 1: herbicidal activity, application before weed generation under submerged conditions (Table 16, symbol C); assay type: in vivo, oval-leafed pondweed (Monochoria vaginalis); details: for Herbicidal effect, C: oval-leafed pondweed: amount of applied herbicide 320 g/ha
Outline: (§4)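 Alluvial soil was flooded to 4 cm depth, weed seeds were sown mixed and 2.5-leaf rice seedlings were transplanted. On sowing day, the compound's emulsion, diluted in water to a set dose, was applied to the water surface. Plants grew at 25–30 °C and were scored 0–5 after three weeks.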

velvetleaf = assay: Test Example 5: herbicidal effect by foliage application, plastic box (Table 20, symbol M); assay type: in vivo, velvetleaf (Abutilon theophrasti); details: evaluated three weeks after application
Outline: as §3

lambsquarters = assay: Test Example 5: herbicidal effect by foliage application, plastic box (Table 20, symbol O); assay type: in vivo, lambsquarters (Chenopodium album); details: evaluated three weeks after application
Outline: as §3

Japanese bulrush [5] = assay: Test Example 2: herbicidal activity, application during weed generation under submerged conditions (Table 17, symbol B); assay type: in vivo, Japanese bulrush (Schoenoplectus juncoides); details: AAH 320 g/ha; application during weed generation, submerged conditions
Outline: as §2

chickweed = assay: Test Example 5: herbicidal effect by foliage application, plastic box (Table 20, symbol P); assay type: in vivo, common chickweed (Stellaria media); details: evaluated three weeks after application
Outline: as §3

Japanese bulrush [6] = assay: Test Example 1: herbicidal activity, application before weed generation under submerged conditions (Table 16, symbol B); assay type: in vivo, Japanese bulrush (Schoenoplectus juncoides); details: for Herbicidal effect, B: Japanese bulrush: amount of applied herbicide 320 g/ha
Outline: as §4

redroot pigweed = assay: Test Example 5: herbicidal effect by foliage application, plastic box (Table 20, symbol N); assay type: in vivo, redroot pigweed (Amaranthus retroflexus); details: evaluated three weeks after application
Outline: as §3

blackgrass = assay: Test Example 5: herbicidal effect by foliage application, plastic box (Table 20, symbol J); assay type: in vivo, blackgrass (Alopecurus myosuroides); details: evaluated three weeks after application
Outline: as §3

late watergrass [7] = assay: Test Example 2: herbicidal activity, application during weed generation under submerged conditions (Table 17, symbol A); assay type: in vivo, late watergrass (Echinochloa oryzicola); details: AAH 320 g/ha; application during weed generation, submerged conditions
Outline: as §2

southern crabgrass = assay: Test Example 5: herbicidal effect by foliage application, plastic box (Table 20, symbol F); assay type: in vivo, southern crabgrass (Digitaria ciliaris); details: evaluated three weeks after application
Outline: as §3

late watergrass [8] = assay: Test Example 1: herbicidal activity, application before weed generation under submerged conditions (Table 16, symbol A); assay type: in vivo, late watergrass (Echinochloa oryzicola); details: for Herbicidal effect, A: late watergrass: amount of applied herbicide 320 g/ha
Outline: as §4

green foxtail = assay: Test Example 5: herbicidal effect by foliage application, plastic box (Table 20, symbol G); assay type: in vivo, green foxtail (Setaria viridis); details: evaluated three weeks after application
Outline: as §3

Italian ryegrass = assay: Test Example 5: herbicidal effect by foliage application, plastic box (Table 20, symbol K); assay type: in vivo, Italian ryegrass (Lolium multiflorum); details: 320 g/ha, evaluated three weeks after application
Outline: as §3

persian speedwell = assay: Test Example 5: herbicidal effect by foliage application, plastic box (Table 20, symbol R); assay type: in vivo, Persian speedwell (Veronica persica); details: evaluated three weeks after application
Outline: as §3

wild oat = assay: Test Example 5: herbicidal effect by foliage application, plastic box (Table 20, symbol I); assay type: in vivo, wild oat (Avena fatua); details: evaluated three weeks after application
Outline: as §3

[9] = amount of applied herbicide 320 g/ha
[10] = 320 g/ha, foliage application after 14-day growth
[11] = amount of applied herbicide 320 g/ha, foliage application after 14-day growth

SMILES: Cc1nn(C)c(=O)c(-c2c(-c3ccc(C(=O)O)cc3)sc3ccc(Cl)cc23)c1O [2-113]
- herbicidal effect on E: rice flat sedge (rice flat sedge; [9]): 0 (Herbicidal rate of 5% or less (almost no effect))
- herbicidal effect on D: Chinese sprangletop (Chinese sprangletop; [9]): 1 (Herbicidal rate of 5% or more and less than 20%)
- herbicidal effect on H: barnyard grass (barnyard grass [1]; [9]): 3 (Herbicidal rate of 40% or more and less than 70%)
- herbicidal effect rating, C: oval-leafed pondweed (oval-leafed pondweed [2]): 0 (Herbicidal rate of 5% or less (almost no effect))
- herbicidal effect on L: windgrass (windgrass; foliage application, 320 g/ha): 0 (Herbicidal rate of 5% or less (almost no effect))
- herbicidal effect on H: barnyard grass (barnyard grass [3]; foliage application, 320 g/ha): 0 (Herbicidal rate of 5% or less (almost no effect))
- Herbicidal effect on C: oval-leafed pondweed (grade 0-5) (oval-leafed pondweed [4]; 320 g/ha applied herbicide): 0 (Herbicidal rate of 5% or less (almost no effect))
- herbicidal effect on M: velvetleaf (velvetleaf; foliage application, 320 g/ha): 0 (Herbicidal rate of 5% or less (almost no effect))
- herbicidal effect on O: lambsquarters (lambsquarters; foliage application, 320 g/ha): 0 (Herbicidal rate of 5% or less (almost no effect))
- herbicidal effect rating, B: Japanese bulrush (Japanese bulrush [5]): 0 (Herbicidal rate of 5% or less (almost no effect))
- herbicidal effect on P: chickweed (chickweed; foliage application, 320 g/ha): 0 (Herbicidal rate of 5% or less (almost no effect))
- Herbicidal effect on B: Japanese bulrush (grade 0-5) (Japanese bulrush [6]; 320 g/ha applied herbicide): 0 (Herbicidal rate of 5% or less (almost no effect))
- herbicidal effect on N: redroot pigweed (redroot pigweed; foliage application, 320 g/ha): 0 (Herbicidal rate of 5% or less (almost no effect))
- herbicidal effect on J: blackgrass (blackgrass; foliage application, 320 g/ha): 0 (Herbicidal rate of 5% or less (almost no effect))
- herbicidal effect rating, A: late watergrass (late watergrass [7]): 2 (Herbicidal rate of 20% or more and less than 40%)
- herbicidal effect on F: southern crabgrass (southern crabgrass; foliage application, 320 g/ha): 0 (Herbicidal rate of 5% or less (almost no effect))
- Herbicidal effect on A: late watergrass (grade 0-5) (late watergrass [8]; 320 g/ha applied herbicide): 3 (Herbicidal rate of 40% or more and less than 70%)
- herbicidal effect on G: green foxtail (green foxtail; foliage application, 320 g/ha): 0 (Herbicidal rate of 5% or less (almost no effect))
- herbicidal effect on K: Italian ryegrass (Italian ryegrass; foliage application): 0 (Herbicidal rate of 5% or less (almost no effect))
- herbicidal effect on R: persian speedwell (persian speedwell; foliage application, 320 g/ha): 0 (Herbicidal rate of 5% or less (almost no effect))
- herbicidal effect on I: wild oat (wild oat; foliage application, 320 g/ha): 0 (Herbicidal rate of 5% or less (almost no effect))

SMILES: Cc1nn(C)c(=O)c(-c2c(-c3ccc(C(F)(F)F)cc3)sc3cc(Cl)ccc23)c1O [3-145]
- herbicidal effect on rice flat sedge (E) (rice flat sedge): 4 (Herbicidal rate of 70% or more and less than 90%)
- herbicidal effect on Chinese sprangletop (D) (Chinese sprangletop): 5 (Herbicidal rate of 90% or more (almost completely withered))
- herbicidal effect on barnyard grass (H) (barnyard grass [1]): 3 (Herbicidal rate of 40% or more and less than 70%)
- herbicidal effect rating, C: oval-leafed pondweed (oval-leafed pondweed [2]): 0 (Herbicidal rate of 5% or less (almost no effect))
- herbicidal effect on L: windgrass (evaluation grade 0-5) (windgrass; [10]): 5 (Herbicidal rate of 90% or more (almost completely withered))
- herbicidal effect on H: barnyard grass (evaluation grade 0-5) (barnyard grass [3]; [10]): 0 (Herbicidal rate of 5% or less (almost no effect))
- Herbicidal effect, C: oval-leafed pondweed (oval-leafed pondweed [4]): 0 (Herbicidal rate of 5% or less (almost no effect))
- herbicidal effect on M: velvetleaf (evaluation grade 0-5) (velvetleaf; [10]): 3 (Herbicidal rate of 40% or more and less than 70%)
- herbicidal effect on O: lambsquarters (evaluation grade 0-5) (lambsquarters; [10]): 3 (Herbicidal rate of 40% or more and less than 70%)
- herbicidal effect rating, B: Japanese bulrush (Japanese bulrush [5]): 2 (Herbicidal rate of 20% or more and less than 40%)
- herbicidal effect on P: chickweed (evaluation grade 0-5) (chickweed; [10]): 0 (Herbicidal rate of 5% or less (almost no effect))
- Herbicidal effect, B: Japanese bulrush (Japanese bulrush [6]): 2 (Herbicidal rate of 20% or more and less than 40%)
- herbicidal effect on N: redroot pigweed (evaluation grade 0-5) (redroot pigweed; [10]): 3 (Herbicidal rate of 40% or more and less than 70%)
- herbicidal effect on J: blackgrass (evaluation grade 0-5) (blackgrass; [10]): 0 (Herbicidal rate of 5% or less (almost no effect))
- herbicidal effect rating, A: late watergrass (late watergrass [7]): 3 (Herbicidal rate of 40% or more and less than 70%)
- herbicidal effect on F: southern crabgrass (evaluation grade 0-5) (southern crabgrass; [10]): 0 (Herbicidal rate of 5% or less (almost no effect))
- Herbicidal effect, A: late watergrass (late watergrass [8]): 3 (Herbicidal rate of 40% or more and less than 70%)
- herbicidal effect on G: green foxtail (evaluation grade 0-5) (green foxtail; [10]): 2 (Herbicidal rate of 20% or more and less than 40%)
- herbicidal effect on K: Italian ryegrass (evaluation grade 0-5) (Italian ryegrass; foliage application after 14-day growth): 0 (Herbicidal rate of 5% or less (almost no effect))
- herbicidal effect on R: persian speedwell (evaluation grade 0-5) (persian speedwell; [10]): 0 (Herbicidal rate of 5% or less (almost no effect))
- herbicidal effect on I: wild oat (evaluation grade 0-5) (wild oat; [10]): 0 (Herbicidal rate of 5% or less (almost no effect))

SMILES: CCCC(=O)Oc1c(C)nn(C)c(=O)c1-c1c(-c2ccc(C(F)(F)F)cc2)sc2cc(F)c(F)cc12 [5-008]
- herbicidal effect on rice flat sedge (E) (rice flat sedge): 0 (Herbicidal rate of 5% or less (almost no effect))
- herbicidal effect on Chinese sprangletop (D) (Chinese sprangletop): 0 (Herbicidal rate of 5% or less (almost no effect))
- herbicidal effect on barnyard grass (H) (barnyard grass [1]): 4 (Herbicidal rate of 70% or more and less than 90%)
- herbicidal effect rating, C: oval-leafed pondweed (oval-leafed pondweed [2]): 0 (Herbicidal rate of 5% or less (almost no effect))
- Herbicidal effect by foliage application, L: windgrass (windgrass; [11]): 1 (Herbicidal rate of 5% or more and less than 20%)
- Herbicidal effect by foliage application, H: barnyard grass (barnyard grass [3]; [11]): 0 (Herbicidal rate of 5% or less (almost no effect))
- Herbicidal effect, C: oval-leafed pondweed (oval-leafed pondweed [4]): 0 (Herbicidal rate of 5% or less (almost no effect))
- Herbicidal effect by foliage application, M: velvetleaf (velvetleaf; [11]): 0 (Herbicidal rate of 5% or less (almost no effect))
- Herbicidal effect by foliage application, O: lambsquarters (lambsquarters; [11]): 3 (Herbicidal rate of 40% or more and less than 70%)
- herbicidal effect rating, B: Japanese bulrush (Japanese bulrush [5]): 0 (Herbicidal rate of 5% or less (almost no effect))
- Herbicidal effect by foliage application, P: chickweed (chickweed; [11]): 4 (Herbicidal rate of 70% or more and less than 90%)
- Herbicidal effect, B: Japanese bulrush (Japanese bulrush [6]): 0 (Herbicidal rate of 5% or less (almost no effect))
- Herbicidal effect by foliage application, N: redroot pigweed (redroot pigweed; [11]): 3 (Herbicidal rate of 40% or more and less than 70%)
- Herbicidal effect by foliage application, J: blackgrass (blackgrass; [11]): 0 (Herbicidal rate of 5% or less (almost no effect))
- herbicidal effect rating, A: late watergrass (late watergrass [7]): 2 (Herbicidal rate of 20% or more and less than 40%)
- Herbicidal effect by foliage application, F: southern crabgrass (southern crabgrass; [11]): 0 (Herbicidal rate of 5% or less (almost no effect))
- Herbicidal effect, A: late watergrass (late watergrass [8]): 3 (Herbicidal rate of 40% or more and less than 70%)
- Herbicidal effect by foliage application, G: green foxtail (green foxtail; [11]): 0 (Herbicidal rate of 5% or less (almost no effect))
- Herbicidal effect by foliage application, R: persian speedwell (persian speedwell; [11]): 3 (Herbicidal rate of 40% or more and less than 70%)
- Herbicidal effect by foliage application, I: wild oat (wild oat; [11]): 0 (Herbicidal rate of 5% or less (almost no effect))
